Laboratory results from ChEMBL document CHEMBL3885881, “DrugMatrix”.

Species: Rattus norvegicus
Experiment: DrugMatrix - Regimen: Daily Repeat
Type: toxicity, organism-based, Sprague-Dawley
Set-up: regimen Daily Repeat, gender Male, age 6-8 weeks
Conditions: in vivo, po, route oral GAVAGE, vehicle 100 % WATER; for ABSOLUTE BASOPHIL / ABSOLUTE EOSINOPHIL / ABSOLUTE LYMPHOCYTE / ABSOLUTE MONOCYTE / ABSOLUTE SEGMENTED NEUTROPHIL / BASOPHIL / EOSINOPHIL / ERYTHROCYTE COUNT / HEMATOCRIT / HEMOGLOBIN / LEUKOCYTE COUNT / LYMPHOCYTE / MEAN CORPUSCULAR HEMOGLOBIN / MEAN CORPUSCULAR HEMOGLOBIN CONCENTRATION / MEAN CORPUSCULAR VOLUME / MONOCYTE / NEUTROPHIL / NUCLEATED RED BLOOD CELLS / PLATELET COUNT: tissue Blood; for ALANINE AMINOTRANSFERASE / ALBUMIN / ALKALINE PHOSPHATASE / ASPARTATE AMINOTRANSFERASE / BLOOD UREA NITROGEN / CARBON DIOXIDE / CHLORIDE / CHOLESTEROL / CREATINE PHOSPHOKINASE / CREATININE / GLUCOSE / LACTATE DEHYDROGENASE / LIPASE / PHOSPHORUS / POTASSIUM / SODIUM / TOTAL BILIRUBIN / TOTAL PROTEIN / URIC ACID: tissue Plasma
[1] = 0 mg/kg, 72 h, dose level Control, time 3 day
[2] = 0 mg/kg, 120 h, dose level Control, time 5 day
[3] = 33 mg/kg, 72 h, dose level Low, time 3 day
[4] = 33 mg/kg, 120 h, dose level Low, time 5 day

C1CCN2C[C@@H]3C[C@@H](CN4CCCC[C@@H]34)[C@H]2C1 [SPARTEINE]
ABSOLUTE BASOPHIL [1]: 0 CELLS/uL | ABSOLUTE EOSINOPHIL [1]: 86.33 CELLS/uL | ABSOLUTE LYMPHOCYTE [1]: 12090.17 CELLS/uL | ABSOLUTE MONOCYTE [1]: 166.67 CELLS/uL | ABSOLUTE SEGMENTED NEUTROPHIL [1]: 1090.17 CELLS/uL | BASOPHIL [1]: 0% | EOSINOPHIL [1]: 0.67% | ERYTHROCYTE COUNT [1]: 5.57 x10E6/uL | HEMATOCRIT [1]: 35.33% | HEMOGLOBIN [1]: 13.83 G/DL | LEUKOCYTE COUNT [1]: 13.43 x10E3/uL | LYMPHOCYTE [1]: 89.83% | MEAN CORPUSCULAR HEMOGLOBIN [1]: 24.88 pg | MEAN CORPUSCULAR HEMOGLOBIN CONCENTRATION [1]: 39.15 G/DL | MEAN CORPUSCULAR VOLUME [1]: 63.52 fL | MONOCYTE [1]: 1.17% | NEUTROPHIL [1]: 8.33% | NUCLEATED RED BLOOD CELLS [1]: 0 /100WBC | PLATELET COUNT [1]: 1181.33 x10E3/uL | ALANINE AMINOTRANSFERASE [1]: 48.33 u/L | ALBUMIN [1]: 4.1 G/DL | ALKALINE PHOSPHATASE [1]: 395 u/L | ASPARTATE AMINOTRANSFERASE [1]: 81.83 u/L | BLOOD UREA NITROGEN [1]: 15.83 mg/dL | CARBON DIOXIDE [1]: 24.17 mmol/L | CHLORIDE [1]: 103.83 MEQ/L | CHOLESTEROL [1]: 63.67 mg/dL | CREATINE PHOSPHOKINASE [1]: 372.83 u/L | CREATININE [1]: 0.18 mg/dL | GLUCOSE [1]: 173.83 mg/dL | LACTATE DEHYDROGENASE [1]: 188.33 u/L | LIPASE [1]: 9.5 u/L | PHOSPHORUS [1]: 11.95 mg/dL | POTASSIUM [1]: 5.99 MEQ/L | SODIUM [1]: 144.43 MEQ/L | TOTAL BILIRUBIN [1]: 0.15 mg/dL | TOTAL PROTEIN [1]: 5.95 G/DL | URIC ACID [1]: 1.82 mg/dL | ABSOLUTE BASOPHIL [2]: 0 CELLS/uL | ABSOLUTE EOSINOPHIL [2]: 26.67 CELLS/uL | ABSOLUTE LYMPHOCYTE [2]: 7583.83 CELLS/uL | ABSOLUTE MONOCYTE [2]: 131.33 CELLS/uL | ABSOLUTE SEGMENTED NEUTROPHIL [2]: 674.83 CELLS/uL | BASOPHIL [2]: 0% | EOSINOPHIL [2]: 0.33% | ERYTHROCYTE COUNT [2]: 5.78 x10E6/uL | HEMATOCRIT [2]: 36.48% | HEMOGLOBIN [2]: 14.03 G/DL | LEUKOCYTE COUNT [2]: 8.42 x10E3/uL | LYMPHOCYTE [2]: 89.83% | MEAN CORPUSCULAR HEMOGLOBIN [2]: 24.3 pg | MEAN CORPUSCULAR HEMOGLOBIN CONCENTRATION [2]: 38.52 G/DL | MEAN CORPUSCULAR VOLUME [2]: 63.15 fL | MONOCYTE [2]: 1.67% | NEUTROPHIL [2]: 8.17% | NUCLEATED RED BLOOD CELLS [2]: 0 /100WBC | PLATELET COUNT [2]: 1186.67 x10E3/uL | ALANINE AMINOTRANSFERASE [2]: 50.17 u/L | ALBUMIN [2]: 4.07 G/DL | ALKALINE PHOSPHATASE [2]: 367.5 u/L | ASPARTATE AMINOTRANSFERASE [2]: 81.67 u/L | BLOOD UREA NITROGEN [2]: 16.17 mg/dL | CARBON DIOXIDE [2]: 32.33 mmol/L | CHLORIDE [2]: 101.5 MEQ/L | CHOLESTEROL [2]: 65.33 mg/dL | CREATINE PHOSPHOKINASE [2]: 255.33 u/L | CREATININE [2]: 0.17 mg/dL | GLUCOSE [2]: 139.33 mg/dL | LACTATE DEHYDROGENASE [2]: 95 u/L | LIPASE [2]: 10.5 u/L | PHOSPHORUS [2]: 10.38 mg/dL | POTASSIUM [2]: 6.11 MEQ/L | SODIUM [2]: 145.55 MEQ/L | TOTAL BILIRUBIN [2]: 0.17 mg/dL | TOTAL PROTEIN [2]: 5.98 G/DL | URIC ACID [2]: 0.93 mg/dL | ABSOLUTE BASOPHIL [3]: 0 CELLS/uL | ABSOLUTE EOSINOPHIL [3]: 58.33 CELLS/uL | ABSOLUTE LYMPHOCYTE [3]: 13527.67 CELLS/uL | ABSOLUTE MONOCYTE [3]: 237.33 CELLS/uL | ABSOLUTE SEGMENTED NEUTROPHIL [3]: 1176.67 CELLS/uL | BASOPHIL [3]: 0% | EOSINOPHIL [3]: 0.33% | ERYTHROCYTE COUNT [3]: 5.67 x10E6/uL | HEMATOCRIT [3]: 36.13% | HEMOGLOBIN [3]: 14 G/DL | LEUKOCYTE COUNT [3]: 15 x10E3/uL | LYMPHOCYTE [3]: 90% | MEAN CORPUSCULAR HEMOGLOBIN [3]: 24.8 pg | MEAN CORPUSCULAR HEMOGLOBIN CONCENTRATION [3]: 38.83 G/DL | MEAN CORPUSCULAR VOLUME [3]: 63.9 fL | MONOCYTE [3]: 1.67% | NEUTROPHIL [3]: 8% | NUCLEATED RED BLOOD CELLS [3]: 0.33 /100WBC | PLATELET COUNT [3]: 1335 x10E3/uL | ALANINE AMINOTRANSFERASE [3]: 50.67 u/L | ALBUMIN [3]: 3.9 G/DL | ALKALINE PHOSPHATASE [3]: 377.67 u/L | ASPARTATE AMINOTRANSFERASE [3]: 91 u/L | BLOOD UREA NITROGEN [3]: 15 mg/dL | CARBON DIOXIDE [3]: 25.67 mmol/L | CHLORIDE [3]: 102 MEQ/L | CHOLESTEROL [3]: 61.33 mg/dL | CREATINE PHOSPHOKINASE [3]: 251.67 u/L | CREATININE [3]: 0.12 mg/dL | GLUCOSE [3]: 152 mg/dL | LACTATE DEHYDROGENASE [3]: 249 u/L | LIPASE [3]: 9 u/L | PHOSPHORUS [3]: 13.2 mg/dL | POTASSIUM [3]: 6.44 MEQ/L | SODIUM [3]: 143.4 MEQ/L | TOTAL BILIRUBIN [3]: 0.13 mg/dL | TOTAL PROTEIN [3]: 5.73 G/DL | URIC ACID [3]: 1.43 mg/dL | ABSOLUTE BASOPHIL [4]: 0 CELLS/uL | ABSOLUTE EOSINOPHIL [4]: 62 CELLS/uL | ABSOLUTE LYMPHOCYTE [4]: 7311 CELLS/uL | ABSOLUTE MONOCYTE [4]: 83 CELLS/uL | ABSOLUTE SEGMENTED NEUTROPHIL [4]: 677.33 CELLS/uL | BASOPHIL [4]: 0% | EOSINOPHIL [4]: 0.67% | ERYTHROCYTE COUNT [4]: 5.58 x10E6/uL | HEMATOCRIT [4]: 34.4% | HEMOGLOBIN [4]: 13.3 G/DL | LEUKOCYTE COUNT [4]: 8.13 x10E3/uL | LYMPHOCYTE [4]: 90.33% | MEAN CORPUSCULAR HEMOGLOBIN [4]: 23.87 pg | MEAN CORPUSCULAR HEMOGLOBIN CONCENTRATION [4]: 38.67 G/DL | MEAN CORPUSCULAR VOLUME [4]: 61.8 fL | MONOCYTE [4]: 1% | NEUTROPHIL [4]: 8% | NUCLEATED RED BLOOD CELLS [4]: 0 /100WBC | PLATELET COUNT [4]: 1046.67 x10E3/uL | ALANINE AMINOTRANSFERASE [4]: 55.33 u/L | ALBUMIN [4]: 3.93 G/DL | ALKALINE PHOSPHATASE [4]: 372 u/L | ASPARTATE AMINOTRANSFERASE [4]: 82.67 u/L | BLOOD UREA NITROGEN [4]: 16.33 mg/dL | CARBON DIOXIDE [4]: 31.67 mmol/L | CHLORIDE [4]: 102.33 MEQ/L | CHOLESTEROL [4]: 65.33 mg/dL | CREATINE PHOSPHOKINASE [4]: 351.67 u/L | CREATININE [4]: 0.16 mg/dL | GLUCOSE [4]: 143.67 mg/dL | LACTATE DEHYDROGENASE [4]: 104.67 u/L | LIPASE [4]: 10 u/L | PHOSPHORUS [4]: 10.67 mg/dL | POTASSIUM [4]: 5.96 MEQ/L | SODIUM [4]: 145.73 MEQ/L | TOTAL BILIRUBIN [4]: 0.13 mg/dL | TOTAL PROTEIN [4]: 5.97 G/DL | URIC ACID [4]: 0.63 mg/dL
